We go through 4 compounds from ChEMBL document CHEMBL3526157, “Unique metabolic pathway of [(14)C]lenvatinib after oral administration to male cynomolgus monkey” (Drug Metab Dispos, 2012).

For series [1], the system named is Cynomolgus monkey. The series can be described thus: Drug retention time in cynomolgus monkey treated with 30 mg/kg, po of [14C]lenvatinib administered on day 1, 2 and 4 by radio-LC/MS analysis. As to conditions: in vivo. The arrangement: dose 30 mg/kg, route oral. The series is classed as ADME, organism-based, Macaca fascicularis.
In series [2] the test system is Cynomolgus monkey. As to the kind of experiment: Drug metabolism in cynomolgus monkey treated with 30 mg/kg, po of [14C]lenvatinib administered on day 1, 2 and 4 by radio-LC/MS analysis. Format: ADME, organism-based, Macaca fascicularis. As to conditions: in vivo. Also on record: dose 30 mg/kg, route oral.
A short description of series [3]: Drug metabolism in cynomolgus monkey liver S9 fraction assessed as decrease of parent compound level at 50 uM up to 120 mins by HPLC analysis in presence of GSH and absence of NADPH. Format: ADME, tissue-based, Macaca fascicularis. As to conditions: s9, 2 h, TDE = time-dependent effect.
The nature of series [4]: Drug metabolism in human liver S9 fraction assessed as decrease of parent compound level at 50 uM up to 120 mins by HPLC analysis in presence of GSH and NADPH. Format: ADME, subcellular. As to conditions: s9, 2 h, TDE = time-dependent effect.
Series [5] in a line: Drug metabolism in cynomolgus monkey liver S9 fraction assessed as 5-(3-(6-carbamoyl-7-methoxyquinolin-4-ylthio)-1-(carboxymethylamino)-1-oxopropan-2-ylamino)-[…]-5-oxopentanoic acid level at 50 uM up to 120 mins by HPLC analysis in presence of GSH and NADPH. The series is classed as ADME, subcellular, Macaca fascicularis. As to conditions: s9, 2 h.
Series [6] can be described thus: Drug metabolism in human liver S9 fraction assessed as decrease of parent compound level at 50 uM up to 120 mins by HPLC analysis in presence of GSH and absence of NADPH. The series is classed as ADME, tissue-based. As to conditions: s9, 2 h, TDE = time-dependent effect.
The nature of series [7]: Drug metabolism in cynomolgus monkey liver S9 fraction assessed as 5-(3-(6-carbamoyl-7-methoxyquinolin-4-ylthio)-1-(carboxymethylamino)-1-oxopropan-2-ylamino)-[…]-5-oxopentanoic acid level at 50 uM up to 120 mins by HPLC analysis in presence of GSH and absence of NADPH. The series is classed as ADME, Macaca fascicularis. As to conditions: s9, 2 h.
The nature of series [8]: Drug metabolism in Sprague-Dawley rat liver S9 fraction assessed as decrease of parent compound level at 50 uM up to 60 mins by HPLC analysis in presence of GSH and absence of NADPH. As to conditions: s9, 1 h, TDE = time-dependent effect.
Series [9] is described as follows: Drug metabolism in human liver S9 fraction assessed as 5-(3-(6-carbamoyl-7-methoxyquinolin-4-ylthio)-1-(carboxymethylamino)-1-oxopropan-2-ylamino)-[…]-5-oxopentanoic acid level at 50 uM up to 120 mins by HPLC analysis in presence of GSH and absence of NADPH. The series is classed as ADME, tissue-based. As to conditions: s9, 2 h.
A short description of series [10]: Drug metabolism in human liver S9 fraction assessed as 5-(3-(6-carbamoyl-7-methoxyquinolin-4-ylthio)-1-(carboxymethylamino)-1-oxopropan-2-ylamino)-[…]-5-oxopentanoic acid level at 50 uM up to 120 mins by HPLC analysis in presence of GSH and NADPH. Format: ADME, subcellular. As to conditions: s9, 2 h.
Series [11] in a line: Drug metabolism in cynomolgus monkey liver S9 fraction assessed as decrease of parent compound level at 50 uM up to 120 mins by HPLC analysis in presence of GSH and NADPH. The series is classed as ADME, subcellular, Macaca fascicularis. As to conditions: s9, 2 h, TDE = time-dependent effect.
A short description of series [12]: Drug metabolism in potassium phosphate buffer at pH 7.4 assessed as decrease of parent compound at 50 uM in presence of NAC. As to conditions: pH 7.4, 50 µM. The series is classed as physicochemical.
Series [13] in a line: Drug metabolism in Sprague-Dawley rat liver S9 fraction assessed as 5-(3-(6-carbamoyl-7-methoxyquinolin-4-ylthio)-1-(carboxymethylamino)-1-oxopropan-2-ylamino)-[…]-5-oxopentanoic acid level at 50 uM up to 60 mins by HPLC analysis in presence of GSH and absence of NADPH. As to conditions: s9, 1 h.
A short description of series [14]: Drug metabolism in potassium phosphate buffer at pH 7.4 assessed as decrease of parent compound at 50 uM in presence of cysteine. Format: physicochemical. As to conditions: pH 7.4, 50 µM.
Series [15] is described as follows: Drug metabolism in potassium phosphate buffer at pH 7.4 assessed as decrease of parent compound at 50 uM in presence of GSH. The series is classed as physicochemical. As to conditions: pH 7.4, 50 µM.
The nature of series [16]: Drug metabolism in Sprague-Dawley rat liver S9 fraction assessed as 5-(3-(6-carbamoyl-7-methoxyquinolin-4-ylthio)-1-(carboxymethylamino)-1-oxopropan-2-ylamino)-[…]-5-oxopentanoic acid level at 50 uM up to 60 mins by HPLC analysis in presence of GSH and NADPH. As to conditions: s9, 1 h.
Series [17] can be described thus: Drug metabolism in Sprague-Dawley rat liver S9 fraction assessed as decrease of parent compound level at 50 uM up to 120 mins by HPLC analysis in presence of GSH and NADPH. As to conditions: s9, 2 h, TDE = time-dependent effect. Format: ADME, subcellular.

`COc1cc2nccc(N[C@@H](CSSC[C@H](Nc3ccnc4cc(OC)c(C(N)=O)cc34)C(=O)O)C(=O)O)c2cc1C(N)=O` yielded a Retention_time in the series on Cynomolgus monkey [1] of 13.5 min. In the series on Cynomolgus monkey [2], the Drug metabolism result is given as “metabolite_detected”.

Compound `COc1cc2nccc(N[C@@H](CS)C(=O)O)c2cc1C(N)=O` registered a Retention_time in the series with Cynomolgus monkey [1] of 14.5 min. Further, in the series with Cynomolgus monkey [2], the Drug metabolism entry was “metabolite_detected”.

Regarding `COc1cc2nccc(N[C@@H](CSc3ccnc4cc(OC)c(C(N)=O)cc34)C(=O)O)c2cc1C(N)=O`, the Retention_time in the series with Cynomolgus monkey [1] was determined as 17.1 min. Further, the Drug metabolism entry with Cynomolgus monkey [2] was “metabolite_detected”.

`COc1cc2nccc(Oc3ccc(NC(=O)NC4CC4)c(Cl)c3)c2cc1C(N)=O.CS(=O)(=O)O` [LENVATINIB MESYLATE]: the Drug metabolism entry in series [3] is recorded as “tde”; in series [4], “tde”; in series [5], “metabolite_detected”; in series [6], “tde”; in [7], “metabolite_detected”; in series [8], “tde”. Also, the Drug metabolism entry is “metabolite_detected” in [9]; “metabolite_detected” in series [10]; “tde” in [11]; “metabolite_detected” in series [12]; “metabolite_detected” in series [13]; “metabolite_detected” in [14]. For the same compound, the Drug metabolism entry is on record as “metabolite_detected” in series [15], “metabolite_detected” in [16] and “tde” in [17]. The compound further showed a Retention_time in the series with Cynomolgus monkey [1] of 46.4 min.
